{"source": "patent US4409210A", "about": "“Antibiotic compound” (priority 1982, dated 1983)", "assay_type_in_all_cases": "cell-based", "key": {"[1]": {"tested_on": "Clostridium acidiurici A9560", "experiment": "MIC, serial two-fold dilution method (anaerobic)", "settings": "Gottschalkia acidurici; Clostridium acidiurici A9560; GAM agar medium; inoculum 10^7-10^8; read-out: minimum inhibitory concentration (MIC)"}, "[2]": {"tested_on": "Clostridium chauvoei A9561", "experiment": "MIC, serial two-fold dilution method (anaerobic)", "settings": "Clostridium chauvoei A9561; GAM agar medium; inoculum 10^7-10^8; read-out: minimum inhibitory concentration (MIC)", "protocol": "(§1) The minimum inhibitory concentration (MIC) of Bu-2517 was determined for a variety of aerobic and anaerobic bacteria by the serial two-fold dilution method using a multi-inoculating apparatus. Mueller-Hinton agar was generally used for aerobic bacteria, GC medium (Eiken) for fastidious aerobic organisms such as streptococci, Neisseria and Haemophilus species, and GAM agar medium (Nissui) for anaerobic bacteria. The inoculum size was adjusted to 10^6 CFU/ml for streptococci, Neisseria and Haemophilus species, 10^4 for other aerobic bacteria and 10^7 -10^8 for all anaerobic organisms. Amphomycin, ampicillin, chloramphenicol, clindamycin, erthromycin, kanamycin and vancomycin were used as reference antibiotics."}, "[3]": {"tested_on": "Clostridium difficile A21675", "experiment": "MIC, serial two-fold dilution method (anaerobic)", "settings": "Clostridioides difficile; Clostridium difficile A21675; GAM agar medium; inoculum 10^7-10^8; read-out: minimum inhibitory concentration (MIC)", "protocol": "as §1"}, "[4]": {"tested_on": "Clostridium difficile A21972", "experiment": "MIC, serial two-fold dilution method (anaerobic)", "settings": "Clostridioides difficile; Clostridium difficile A21972; GAM agar medium; inoculum 10^7-10^8; read-out: minimum inhibitory concentration (MIC)", "protocol": "as §1"}, "[5]": {"tested_on": "Clostridium septicum A21869", "experiment": "MIC, serial two-fold dilution method (anaerobic)", "settings": "Clostridium septicum A21869; GAM agar medium; inoculum 10^7-10^8; read-out: minimum inhibitory concentration (MIC)", "protocol": "as §1"}, "[6]": {"tested_on": "Clostridium cylindrosporum A9562", "experiment": "MIC, serial two-fold dilution method (anaerobic)", "settings": "Clostridium cylindrosporum A9562; GAM agar medium; inoculum 10^7-10^8; read-out: minimum inhibitory concentration (MIC)"}, "[7]": {"tested_on": "Clostridium perfringens A9635", "experiment": "microbe, parasite or virus in culture", "settings": "Clostridium perfringens, A9635, read-out: minimum inhibitory concentration (MIC)"}, "[8]": {"tested_on": "Clostridium perfringens A22787", "experiment": "microbe, parasite or virus in culture", "settings": "Clostridium perfringens, A22787, read-out: minimum inhibitory concentration (MIC)"}, "[9]": {"tested_on": "Clostridium ramosum A21970", "experiment": "MIC, serial two-fold dilution method (anaerobic)", "settings": "Thomasclavelia ramosa; Clostridium ramosum A21970; GAM agar medium; inoculum 10^7-10^8; read-out: minimum inhibitory concentration (MIC)"}, "[10]": {"tested_on": "Propionibacterium acnes A21933", "experiment": "MIC, serial two-fold dilution method (anaerobic)", "settings": "Cutibacterium acnes; Propionibacterium acnes A21933; GAM agar medium; inoculum 10^7-10^8; read-out: minimum inhibitory concentration (MIC)"}, "[11]": {"tested_on": "Propionibacterium acnes A21953", "experiment": "MIC, serial two-fold dilution method (anaerobic)", "settings": "Cutibacterium acnes; Propionibacterium acnes A21953; GAM agar medium; inoculum 10^7-10^8; read-out: minimum inhibitory concentration (MIC)"}, "[12]": {"tested_on": "Propionibacterium acnes A22650", "experiment": "MIC, serial two-fold dilution method (anaerobic)", "settings": "Cutibacterium acnes; Propionibacterium acnes A22650; GAM agar medium; inoculum 10^7-10^8; read-out: minimum inhibitory concentration (MIC)"}, "[13]": {"tested_on": "Peptostreptococcus anaerobius A21905", "experiment": "MIC, serial two-fold dilution method (anaerobic)", "settings": "Peptostreptococcus anaerobius A21905; GAM agar medium; inoculum 10^7-10^8; read-out: minimum inhibitory concentration (MIC)"}, "[14]": {"tested_on": "Peptostreptococcus intermedius A21881", "experiment": "MIC, serial two-fold dilution method (anaerobic)", "settings": "Peptostreptococcus intermedius A21881; GAM agar medium; inoculum 10^7-10^8; read-out: minimum inhibitory concentration (MIC)"}, "[15]": {"tested_on": "Peptococcus magnas A21676", "experiment": "MIC, serial two-fold dilution method (anaerobic)", "settings": "Peptococcus magnas A21676; GAM agar medium; inoculum 10^7-10^8; read-out: minimum inhibitory concentration (MIC)"}, "[16]": {"tested_on": "Bacteroides fragilis CUH-9", "experiment": "MIC, serial two-fold dilution method (anaerobic)", "settings": "CUH9; Bacteroides fragilis CUH-9; GAM agar medium; inoculum 10^7-10^8; read-out: minimum inhibitory concentration (MIC)"}, "[17]": {"tested_on": "Bacteroides fragilis CUH-24", "experiment": "MIC, serial two-fold dilution method (anaerobic)", "settings": "CUH24; Bacteroides fragilis CUH-24; GAM agar medium; inoculum 10^7-10^8; read-out: minimum inhibitory concentration (MIC)"}, "[18]": {"tested_on": "Bacteroides fragilis A20926", "experiment": "MIC, serial two-fold dilution method (anaerobic)", "settings": "Bacteroides fragilis A20926; GAM agar medium; inoculum 10^7-10^8; read-out: minimum inhibitory concentration (MIC)"}, "[19]": {"tested_on": "Bacteroides fragilis A20928-1", "experiment": "MIC, serial two-fold dilution method (anaerobic)", "settings": "A209281; Bacteroides fragilis A20928-1; GAM agar medium; inoculum 10^7-10^8; read-out: minimum inhibitory concentration (MIC)"}, "[20]": {"tested_on": "Bacteroides fragilis A20929", "experiment": "MIC, serial two-fold dilution method (anaerobic)", "settings": "Bacteroides fragilis A20929; GAM agar medium; inoculum 10^7-10^8; read-out: minimum inhibitory concentration (MIC)"}, "[21]": {"tested_on": "Bacteroides fragilis A21900", "experiment": "MIC, serial two-fold dilution method (anaerobic)", "settings": "Bacteroides fragilis A21900; GAM agar medium; inoculum 10^7-10^8; read-out: minimum inhibitory concentration (MIC)"}, "[22]": {"tested_on": "Bacteroides fragilis A22053", "experiment": "MIC, serial two-fold dilution method (anaerobic)", "settings": "Bacteroides fragilis A22053; GAM agar medium; inoculum 10^7-10^8; read-out: minimum inhibitory concentration (MIC)"}, "[23]": {"tested_on": "Bacteroides fragilis A22533", "experiment": "MIC, serial two-fold dilution method (anaerobic)", "settings": "Bacteroides fragilis A22533; GAM agar medium; inoculum 10^7-10^8; read-out: minimum inhibitory concentration (MIC)"}, "[24]": {"tested_on": "Bacteroides fragilis A22695", "experiment": "MIC, serial two-fold dilution method (anaerobic)", "settings": "Bacteroides fragilis A22695; GAM agar medium; inoculum 10^7-10^8; read-out: minimum inhibitory concentration (MIC)"}, "[25]": {"tested_on": "Bacteroides ovatus A22400", "experiment": "MIC, serial two-fold dilution method (anaerobic)", "settings": "Bacteroides ovatus A22400; GAM agar medium; inoculum 10^7-10^8; read-out: minimum inhibitory concentration (MIC)"}, "[26]": {"tested_on": "Fusobacterium necrophorum A20013", "experiment": "MIC, serial two-fold dilution method (anaerobic)", "settings": "Fusobacterium necrophorum A20013; GAM agar medium; inoculum 10^7-10^8; read-out: minimum inhibitory concentration (MIC)"}, "[27]": {"tested_on": "Fusobacterium nucleatum A21906", "experiment": "MIC, serial two-fold dilution method (anaerobic)", "settings": "Fusobacterium nucleatum A21906; GAM agar medium; inoculum 10^7-10^8; read-out: minimum inhibitory concentration (MIC)"}, "[28]": {"tested_on": "Fusobacterium varium ATCC 8501", "experiment": "MIC, serial two-fold dilution method (anaerobic)", "settings": "ATCC8501; Fusobacterium varium ATCC 8501; GAM agar medium; inoculum 10^7-10^8; read-out: minimum inhibitory concentration (MIC)"}, "[29]": {"tested_on": "Veillonella alcalescens A21914-1", "experiment": "MIC, serial two-fold dilution method (anaerobic)", "settings": "Veillonella parvula, A219141; Veillonella alcalescens A21914-1; GAM agar medium; inoculum 10^7-10^8; read-out: minimum inhibitory concentration (MIC)"}, "[30]": {"tested_on": "Veillonella parvula A20010", "experiment": "MIC, serial two-fold dilution method (anaerobic)", "settings": "Veillonella parvula A20010; GAM agar medium; inoculum 10^7-10^8; read-out: minimum inhibitory concentration (MIC)"}}, "data": [{"smiles": "CCC[C@@H]1C[C@@H](C(=O)N[C@@H]([C@H]2O[C@H](SC)[C@H](O)[C@@H](O)[C@H]2O)[C@H](C)Cl)N(C)C1", "note": "[Clindamycin]", "values": [{"measurement": "MIC", "setting": "[1]", "result": 0.8, "unit": "µg/mL"}, {"measurement": "MIC", "setting": "[2]", "result": 0.025, "unit": "µg/mL"}, {"measurement": "MIC", "setting": "[3]", "result": 100, "unit": "µg/mL"}, {"measurement": "MIC", "setting": "[4]", "result": 0.025, "unit": "µg/mL"}, {"measurement": "MIC", "setting": "[5]", "result": 0.8, "unit": "µg/mL"}, {"measurement": "MIC", "setting": "[6]", "result": 0.8, "unit": "µg/mL"}, {"measurement": "MIC", "setting": "[7]", "result": 0.025, "unit": "µg/mL"}, {"measurement": "MIC", "setting": "[8]", "result": 50, "unit": "µg/mL"}, {"measurement": "MIC", "setting": "[9]", "result": 0.025, "unit": "µg/mL"}, {"measurement": "MIC", "setting": "[10]", "result": 0.8, "unit": "µg/mL"}, {"measurement": "MIC", "setting": "[11]", "result": 0.8, "unit": "µg/mL"}, {"measurement": "MIC", "setting": "[12]", "result": 0.1, "unit": "µg/mL"}, {"measurement": "MIC", "setting": "[13]", "result": 0.2, "unit": "µg/mL"}, {"measurement": "MIC", "setting": "[14]", "result": 0.2, "unit": "µg/mL"}, {"measurement": "MIC", "setting": "[15]", "result": 0.05, "unit": "µg/mL"}, {"measurement": "MIC", "setting": "[16]", "result": 50, "unit": "µg/mL"}, {"measurement": "MIC", "setting": "[17]", "result": "> 100", "unit": "µg/mL"}, {"measurement": "MIC", "setting": "[18]", "result": 0.025, "unit": "µg/mL"}, {"measurement": "MIC", "setting": "[19]", "result": 0.025, "unit": "µg/mL"}, {"measurement": "MIC", "setting": "[20]", "result": 3.1, "unit": "µg/mL"}, {"measurement": "MIC", "setting": "[21]", "result": 1.6, "unit": "µg/mL"}, {"measurement": "MIC", "setting": "[22]", "result": 0.2, "unit": "µg/mL"}, {"measurement": "MIC", "setting": "[23]", "result": 0.025, "unit": "µg/mL"}, {"measurement": "MIC", "setting": "[24]", "result": 0.1, "unit": "µg/mL"}, {"measurement": "MIC", "setting": "[25]", "result": 6.3, "unit": "µg/mL"}, {"measurement": "MIC", "setting": "[26]", "result": 12.5, "unit": "µg/mL"}, {"measurement": "MIC", "setting": "[27]", "result": 1.6, "unit": "µg/mL"}, {"measurement": "MIC", "setting": "[28]", "result": 1.6, "unit": "µg/mL"}, {"measurement": "MIC", "setting": "[29]", "result": 0.013, "unit": "µg/mL"}, {"measurement": "MIC", "setting": "[30]", "result": 0.4, "unit": "µg/mL"}]}]}
